These results are taken from US20160090556A1, “PRODUCTS COMPRISING MALODOR REDUCTION MATERIALS” (The Procter & Gamble Company, priority 2014, published 2016).

The first data set can be described thus: Probability of Ingredient Color Instability. The note with it: class code letter within Comment Code. It is filed as physicochemical.
As for `CCCCCCCCC(C)C=O` (stereo not shown) [Material 92], the “Probability of Ingredient Color Instability (Comment Code E/F)” value is listed as “F (Probability of Ingredient Color Instability<71%)”.
Still for that read-out and setting: to `CCCCCCC1CCCC1=O` (stereo not shown) [Material 189] belongs “F (Probability of Ingredient Color Instability<71%)”.

The next data set in a line: Liquid dish neat product liquid-air partition coefficient. Type of data set: physicochemical.
Conditions: not given
As for `C=C(C)C1CC=C(CO)CC1` (stereo not shown) [Material 948], the “Log of liquid dish neat product liquid-air partition coefficient (Comment Code K/L)” value (“Log … (Comment Code K/L)” for short) is “K (Log of liquid dish neat product liquid-air partition coefficient greater than or equal to −7)”.
On to `CC1CCC2(O)C(C)(C)C3CCC2(C)C1C3` (stereo not shown) [Material 933], for which the “Log … (Comment Code K/L)” value is on record as “K (Log of liquid dish neat product liquid-air partition coefficient greater than or equal to −7)”.
Turning to `CCC(C)C(=O)OCCc1ccccc1` (stereo not shown) [Material 954], the “Log … (Comment Code K/L)” value is on record as “K (Log of liquid dish neat product liquid-air partition coefficient greater than or equal to −7)”.
Still for that read-out and setting: next, `CCCC(O)CCC1C(C)CCCC1(C)C` (stereo not shown) [Material 1063]: “K (Log of liquid dish neat product liquid-air partition coefficient greater than or equal to −7)”; `CCCCCCCCCCCCCO` [Material 1090]: “K (Log of liquid dish neat product liquid-air partition coefficient greater than or equal to −7)”; `C=C(C)C1CC=C(C=O)CC1` (stereo not shown) [Material 946]: “K (Log of liquid dish neat product liquid-air partition coefficient greater than or equal to −7)”.
The same measure, in the same setting: next, `C=C(C)C1CCC(C)(OC(C)=O)CC1` (stereo not shown) [Material 611]: “K (Log of liquid dish neat product liquid-air partition coefficient greater than or equal to −7)”; `CC1=CCOC(c2ccccc2)C1` (stereo not shown) [Material 1016]: “K (Log of liquid dish neat product liquid-air partition coefficient greater than or equal to −7)”.
Turning to `CC(C)Cc1ccc2ccccc2n1` [Material 849], the “Log … (Comment Code K/L)” value is “K (Log of liquid dish neat product liquid-air partition coefficient greater than or equal to −7)”.
`CC1=CCC(CCC(C)C(C)O)C1(C)C` (stereo not shown) [Material 1023]: the “Log … (Comment Code K/L)” value is listed as “K (Log of liquid dish neat product liquid-air partition coefficient greater than or equal to −7)”.
For `CC(=O)C=CC12OC1(C)CCCC2(C)C` (stereo not shown) [Material 636], the “Log … (Comment Code K/L)” value is reported as “K (Log of liquid dish neat product liquid-air partition coefficient greater than or equal to −7)”.
For `CC(C)(O)CCc1ccccc1` [Material 639], the “Log … (Comment Code K/L)” value is given as “K (Log of liquid dish neat product liquid-air partition coefficient greater than or equal to −7)”.
Take `C=CCOC(=O)CCC1CCCCC1` [Material 746]: the “Log … (Comment Code K/L)” value is “K (Log of liquid dish neat product liquid-air partition coefficient greater than or equal to −7)”.
On the same count and under the same terms, next, `OCCc1ccccc1` [Material 955]: “K (Log of liquid dish neat product liquid-air partition coefficient greater than or equal to −7)”; `CC(C)=CCC/C(C)=C/CO` [Material 1082]: “K (Log of liquid dish neat product liquid-air partition coefficient greater than or equal to −7)”; `C=CCc1ccc2c(c1)OCO2` [Material 1021]: “K (Log of liquid dish neat product liquid-air partition coefficient greater than or equal to −7)”.
Turning to `CC1CC=CCCCCCCCC(=O)OCC1` (stereo not shown) [Material 1099], the “Log … (Comment Code K/L)” value is “K (Log of liquid dish neat product liquid-air partition coefficient greater than or equal to −7)”.
As for `CC(C)C1OCCC2(CC3CCC2(C)C3(C)C)O1` (stereo not shown) [Material 659], the “Log … (Comment Code K/L)” value is “K (Log of liquid dish neat product liquid-air partition coefficient greater than or equal to −7)”.
In the case of `CCC(=O)OC(C)(C)C1CC=C(C)CC1` (stereo not shown) [Material 686], the “Log … (Comment Code K/L)” value is “K (Log of liquid dish neat product liquid-air partition coefficient greater than or equal to −7)”.
`CC(C)=CCC=C(C)C1CC=C(C)CC1` (stereo not shown) [Material 719]: the “Log … (Comment Code K/L)” value is “K (Log of liquid dish neat product liquid-air partition coefficient greater than or equal to −7)”.

Staying with this data set, now noted: class code letter within Comment Code.
As to `C=CC1(C)CCC(C(C)(C)O)O1` (stereo not shown) [Material 155], the “Log … (Comment Code K/L)” value is “K (Log of liquid dish neat product liquid-air partition coefficient greater than or equal to −7)”.
With `COC1(OC)CCCCCCCCCCC1` [Material 10], the “Log … (Comment Code K/L)” value is “K (Log of liquid dish neat product liquid-air partition coefficient greater than or equal to −7)”.
On to `CC(C)C(=O)OC1CC2CC1C1C=CCC21` (stereo not shown) [Material 487], for which the “Log … (Comment Code K/L)” value was “K (Log of liquid dish neat product liquid-air partition coefficient greater than or equal to −7)”.
Consider `CC(C)=CCCC(C)=CCCc1ccncc1` [Material 135], for which the “Log … (Comment Code K/L)” value is given as “K (Log of liquid dish neat product liquid-air partition coefficient greater than or equal to −7)”.
For `CCCC(=O)OC1CC2CC1C1CC=CC21` (stereo not shown) [Material 484], the “Log … (Comment Code K/L)” value is listed as “K (Log of liquid dish neat product liquid-air partition coefficient greater than or equal to −7)”.
In the case of `C=CCCCCCCCCC(=O)OCC` [Material 381], the “Log … (Comment Code K/L)” value is “K (Log of liquid dish neat product liquid-air partition coefficient greater than or equal to −7)”.
As to `CC(C)C(=O)OC1CC2CCC1(C)C2(C)C` (stereo not shown) [Material 229], the “Log … (Comment Code K/L)” value is given as “K (Log of liquid dish neat product liquid-air partition coefficient greater than or equal to −7)”.
As for `CC(C=O)Cc1ccc(C(C)(C)C)cc1` (stereo not shown) [Material 162], the “Log … (Comment Code K/L)” value is listed as “K (Log of liquid dish neat product liquid-air partition coefficient greater than or equal to −7)”.
`CCOC(C)OC1CCCCCCCCCCC1` (stereo not shown) [Material 363]: the “Log … (Comment Code K/L)” value is “K (Log of liquid dish neat product liquid-air partition coefficient greater than or equal to −7)”.
With `CCOC(C)OCCc1ccccc1` (stereo not shown) [Material 415], the “Log … (Comment Code K/L)” value is on record as “K (Log of liquid dish neat product liquid-air partition coefficient greater than or equal to −7)”.
Consider `CCCCCCCCCCCCOC(C)=O` [Material 175], for which the “Log … (Comment Code K/L)” value was “K (Log of liquid dish neat product liquid-air partition coefficient greater than or equal to −7)”.
On the same count and under the same terms, to `CC(C)C1CCC(C(C)O)CC1` (stereo not shown) [Material 83] belongs “K (Log of liquid dish neat product liquid-air partition coefficient greater than or equal to −7)”.
Same read-out and setting: to `CCCCCCCCCC(C)C(OC)OC` (stereo not shown) [Material 101] belongs “K (Log of liquid dish neat product liquid-air partition coefficient greater than or equal to −7)”.
For the molecule `CC1=CCC(C)C(C)C12C=CC(C)O2` (stereo not shown) [Material 192], the “Log … (Comment Code K/L)” value is given as “K (Log of liquid dish neat product liquid-air partition coefficient greater than or equal to −7)”.
On the same count and under the same terms, next, `CCCCCCCCCCCC(=O)OCCC(C)C` [Material 238]: “K (Log of liquid dish neat product liquid-air partition coefficient greater than or equal to −7)”.

Staying with this data set, now noted: code letters K, L.
For the molecule `CC(C)CC(=O)OCc1ccccc1` [Material 645], the “Comment Code: Log of liquid dish neat product liquid-air partition coefficient” value (shortened to “Comment Code: Log”) is “K (Log of liquid dish neat product liquid-air partition coefficient greater than or equal to −7)”.
Turning to `CC1CCC2(O)C(C)(C)C3CCC2(C)C1C3` (stereo not shown) [Material 933], the “Comment Code: Log” value is on record as “K (Log of liquid dish neat product liquid-air partition coefficient greater than or equal to −7)”.
`CC(C)C(=O)OC1CC2CC1C1C=CCC21` (stereo not shown) [Material 487]: the “Comment Code: Log” value is reported as “K (Log of liquid dish neat product liquid-air partition coefficient greater than or equal to −7)”.
Take `COc1cc(C)cc(O)c1` [Material 811]: the “Comment Code: Log” value was “K (Log of liquid dish neat product liquid-air partition coefficient greater than or equal to −7)”.
As for `COC(C)(C)CCCC(C)C=O` (stereo not shown) [Material 125], the “Comment Code: Log” value was “K (Log of liquid dish neat product liquid-air partition coefficient greater than or equal to −7)”.
Take `CCC(C)C(=O)N(C)c1ccccc1` (stereo not shown) [Material 314]: the “Comment Code: Log” value is “K (Log of liquid dish neat product liquid-air partition coefficient greater than or equal to −7)”.
Regarding `CC1CCOC(c2ccccc2)C1` (stereo not shown) [Material 420], the “Comment Code: Log” value is listed as “K (Log of liquid dish neat product liquid-air partition coefficient greater than or equal to −7)”.
As to `N#CC=Cc1ccccc1` [Material 549], the “Comment Code: Log” value is “K (Log of liquid dish neat product liquid-air partition coefficient greater than or equal to −7)”.
On the same count and under the same terms, to `CC(C)=CCC/C(C)=C\COC=O` [Material 59] belongs “K (Log of liquid dish neat product liquid-air partition coefficient greater than or equal to −7)”; to `CCCC(=O)OC1CC2CC1C1CC=CC21` (stereo not shown) [Material 484], “K (Log of liquid dish neat product liquid-air partition coefficient greater than or equal to −7)”.
Consider `CC(C)C(=O)OC1CC2CCC1(C)C2(C)C` (stereo not shown) [Material 229], for which the “Comment Code: Log” value is listed as “K (Log of liquid dish neat product liquid-air partition coefficient greater than or equal to −7)”.
With `O=COCCc1ccccc1` [Material 956], the “Comment Code: Log” value was “K (Log of liquid dish neat product liquid-air partition coefficient greater than or equal to −7)”.
Take `CC(=O)OC(C)c1ccccc1` (stereo not shown) [Material 1041]: the “Comment Code: Log” value was “K (Log of liquid dish neat product liquid-air partition coefficient greater than or equal to −7)”.
As to `CC(=O)OC(C)(C)C1CC=C(C)CC1` (stereo not shown) [Material 687], the “Comment Code: Log” value was “K (Log of liquid dish neat product liquid-air partition coefficient greater than or equal to −7)”.
Turning to `CC(C)C1OCCC2(CC3CCC2(C)C3(C)C)O1` (stereo not shown) [Material 659], the “Comment Code: Log” value is listed as “K (Log of liquid dish neat product liquid-air partition coefficient greater than or equal to −7)”.
